Reference: ChEMBL document CHEMBL1201862, “PubChem BioAssay data set” (2004)
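Assay format: 96-well plates, 48-hour exposure. GI50: concentration for 50% inhibition of growth.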 Calls of active or inactive are those of the source. Cut-off read from the data, not from the text of the source: active = GI50 up to about 1.1 µM and inactive = higher.

Columns and labels:
Experiment in all cases: NCI anticancer screen, dose series, 48 h
A498 = tested on: A498
CAKI-1 = tested on: CAKI-1
COLO 205 = tested on: COLO 205
HL-60 = tested on: HL-60
HOP-62 = tested on: HOP-62
HOP-92 = tested on: HOP-92
MDA-MB-435 = tested on: MDA-MB-435
NCI-H522 = tested on: NCI-H522
OVCAR-3 = tested on: OVCAR-3
OVCAR-4 = tested on: OVCAR-4
OVCAR-5 = tested on: OVCAR-5
OVCAR-8 = tested on: OVCAR-8
SF-539 = tested on: SF-539
SNB-19 = tested on: SNB-19
SW-620 = tested on: SW-620
T47D = tested on: T47D
U-251 = tested on: U-251
UACC-257 = tested on: UACC-257
UO-31 = tested on: UO-31

Compound | GI50 (A498) | GI50 (CAKI-1) | GI50 (COLO 205) | GI50 (HL-60) | GI50 (HOP-62) | GI50 (HOP-92) | GI50 (MDA-MB-435) | GI50 (NCI-H522) | GI50 (OVCAR-3) | GI50 (OVCAR-4) | GI50 (OVCAR-5) | GI50 (OVCAR-8) | GI50 (SF-539) | GI50 (SNB-19) | GI50 (SW-620) | GI50 (T47D) | GI50 (U-251) | GI50 (UACC-257) | GI50 (UO-31)
O=C(CC(=O)CC(O)(C(F)(F)F)C(F)(F)F)CC(O)(C(F)(F)F)C(F)(F)F | > 10 µM (inactive) | > 10 µM (inactive) | > 10 µM (inactive) | > 10 µM (inactive) | > 10 µM (inactive) | 5.75 µM (inactive) | > 10 µM (inactive) | > 10 µM (inactive) | > 10 µM (inactive) | > 10 µM (inactive) | > 10 µM (inactive) | > 10 µM (inactive) | > 10 µM (inactive) | > 10 µM (inactive) | > 10 µM (inactive) | > 10 µM (inactive) | > 10 µM (inactive) | > 10 µM (inactive) | > 10 µM (inactive)
C/C(O)=C/C(=O)c1[nH]c(C(=O)O)cc1C1CCN(Cc2ccccc2)C1=O (centres undefined) | 41.1 µM (inactive) | 42.3 µM (inactive) | 18 µM (inactive) | – | 15.8 µM (inactive) | 20.8 µM (inactive) | 27.3 µM (inactive) | 23.7 µM (inactive) | 21.7 µM (inactive) | 34 µM (inactive) | 25.2 µM (inactive) | 19.1 µM (inactive) | – | 22.7 µM (inactive) | 29.5 µM (inactive) | 15.7 µM (inactive) | 34.2 µM (inactive) | 22.4 µM (inactive) | 14.2 µM (inactive)
CC1(C)CC2C(=O)c3ccccc3NC2c2ccccc21 (centres undefined) | 6.21 µM (inactive) | 6.32 µM (inactive) | 3.44 µM (inactive) | 2.11 µM (inactive) | 3.75 µM (inactive) | > 24.6 µM (inactive) | 0.326 µM (active) | 1.53 µM (inactive) | 4.29 µM (inactive) | 57 µM (inactive) | > 26.2 µM (inactive) | 5.96 µM (inactive) | 2.33 µM (inactive) | 5.79 µM (inactive) | 3.9 µM (inactive) | 4.51 µM (inactive) | 5.47 µM (inactive) | 40.4 µM (inactive) | 6.03 µM (inactive)
COC(=O)C1(C(=O)OC)CC2=C(S(=O)(=O)c3ccccc3)C[C@H](C#N)[C@H]2C1 | > 100 µM (inactive) | > 100 µM (inactive) | 68.5 µM (inactive) | > 100 µM (inactive) | > 100 µM (inactive) | 69.8 µM (inactive) | 49.1 µM (inactive) | 46.3 µM (inactive) | – | > 100 µM (inactive) | > 100 µM (inactive) | > 100 µM (inactive) | > 100 µM (inactive) | 64.6 µM (inactive) | > 100 µM (inactive) | 57.5 µM (inactive) | > 100 µM (inactive) | > 100 µM (inactive) | > 100 µM (inactive)
Cc1n[n+]([O-])c(C)cc1[N+](=O)[O-] | 18.1 µM (inactive) | – | 13.5 µM (inactive) | – | 19.5 µM (inactive) | 16.8 µM (inactive) | 15.6 µM (inactive) | 12.3 µM (inactive) | 14.5 µM (inactive) | 19.4 µM (inactive) | 19.5 µM (inactive) | 15.5 µM (inactive) | 27.6 µM (inactive) | 39.4 µM (inactive) | 15 µM (inactive) | 17.4 µM (inactive) | 22.4 µM (inactive) | 15.6 µM (inactive) | 16.2 µM (inactive)
CCOC(=O)c1ccc(-c2cc(C)[nH]n2)[nH]1 | 50.4 µM (inactive) | > 100 µM (inactive) | > 100 µM (inactive) | 63.5 µM (inactive) | > 100 µM (inactive) | > 100 µM (inactive) | > 100 µM (inactive) | > 100 µM (inactive) | > 100 µM (inactive) | > 100 µM (inactive) | > 100 µM (inactive) | > 100 µM (inactive) | > 100 µM (inactive) | > 100 µM (inactive) | > 100 µM (inactive) | 85.5 µM (inactive) | > 100 µM (inactive) | > 100 µM (inactive) | > 100 µM (inactive)
